Legend:
[1] = tested on: PR-1a/T7 polymerase x plastid T7/cellulase plants; assay: E5 cellulase mRNA content of plants after BTH induction (Northern blot); assay type: in vivo, Nicotiana tabacum
Source text: Homozygous NT-10× and NT-110N plants containing the PR-1a-T7 RNA Pol construct were used to pollinate homoplastidic Nt_pC8E5 and Nt_pC+E5 plastid transformant lines carrying the maternally inherited pC8E5 and pC+E5 cellulase constructs. The Nt_pC+E5×NT-110X or NT--110N, and Nt_pC8E5×NT-110X or NT110N F1 progeny (which were heterozygous for the PR-1/T7 polymerase nuclear expression cassette and homoplastidic for the T7/cellulase plastid expression cassette) were germinated on soil. Upon reaching a height of […], the plants were sprayed with the inducer compound BTH to elicit T7 Pol-regulated expression of the E5 cellulase gene that is localized to the plastids. […]
Total RNA was extracted from frozen tissue of BTH and wettable powder-sprayed control and PR-1a/7 polymerase×plastid T7/cellulase plants, and Northern blot analysis on 5 μg RNA samples was carried out as described (Ward et al. (1991) The Plant Cell 3, 1085-1094) using as a probe a radiolabelled DNA fragment containing the E5 cellulase coding sequence. Relative E5 cellulase mRNA accumulation at each time point was assessed by quantifying the radioactivity in bands hybridizing with the radiolabelled E5 cellulase probe in order to determine time courses of fold mRNA induction. […] Prior to induction, no cellulase mRNA is detected.

[2] = tested on: PR-1a/T7 polymerase x plastid T7/GUS plants (pPH110X6b x 4276P); assay: GUS mRNA content of plants sprayed with BTH (Northern blot, ethidium bromide scan); assay type: in vivo, Nicotiana tabacum
Source text: (§1) The N. tabacum ‘Xanthi’ plastid transformant line 4276P described by McBride et al. ((1994) PNAS 91: 7301-7305) was pollinated by homozygous NT-110X6b5 plants containing the PR-1a/T7 RNA polymerase. 4276P differs from pC8 only with respect to (a) the promoter used to express the aadA selectable marker (which has the 16S ribosomal RNA gene promoter rather than the psbA gene promoter used in pC8), (b) the presence of a psbA gene 3′ untranslated region between the GUS gene and the T7 terminator, and (c) the absence of a lac operator and duplicated StuI restriction site sequence in the T7 promoter. F1 plants from this cross heterozygous for the PR-1a/T7 polymerase nuclear expression cassette and homoplastidic for the T7/GUS plastid expression cassette were germinated in soil. Upon reaching a height of 20 to 40 cm the plants were sprayed with either an inert wettable powder suspension or a formulation of the inducer compound BTH with wettable powder. Control untransformed N. tabacum ‘Xanthi’, NT-110X6b-5, and 4276P plants germinated in soil at the same time were sprayed in a similar manner. Plant material (one leaf from each of three independent plants of each genotype) was harvested just prior to spraying and at 8 hours and 1, 2, 3, 7, and 28 days following spraying, and flash frozen as described above.
(§2) Total RNA was extracted from frozen tissue of BTH and wettable powder-sprayed control and PR-1a/T7 polymerase×plastid T7/GUS plants, and Northern blot analysis on 5 μg RNA samples was carried out as described (Ward et al. (1991) The Plant Cell 3, 1085-1094) using as a probe a 500 bp radiolabelled 5′ fragment of the GUS gene. […] Example C12 Determination of GUS protein content of transgenic plants In order to determine the amount of GUS present in the tissues of transgenic plants, chemiluminescent (Amersham) Western blot analysis was performed according to the manufacturer's instructions and Harlow and Lane (1988) Antibodies: A laboratory manual, Cold Spring Harbor Laboratory, Cold Spring Harbor, using GUS antisera purchased from Molecular Probes and purified GUS protein standards (Sigma). Proteins from frozen, ground leaf material harvested as above were solubilized by extraction in 50 mM Tris pH 8.0, 1 mM EDTA, 1 mM PTT, 1 mM AEBSP, and 1 mM DTT and 5 to 25 μg protein run on each lane of 10% polyacrylamide gels. GUS protein accumulation in the plastid transformed plants is sustained over 7-28 days and beyond, and is extraordinarily high (much higher than peak GUS accumulation for nuclear PR-1a/GUS), exceeding 20% of total protein by 28 days.

[3] = tested on: nuclear PR-1a/GUS transformants; assay: GUS protein accumulation in nuclear PR-1a/GUS transformants after induction (Western blot); assay type: in vivo; conditions: nuclear PR1a/GUS transformants
Description: as §2

[4] = tested on: PR-1a/T7 polymerase x plastid T7/GUS plants (pPH110X6b x 4276P); assay: GUS activity in leaf extracts of plants sprayed with BTH (fluorometric MUG assay); assay type: in vivo, Nicotiana tabacum
Source text: as §1
Frozen leaf tissue was ground in a mortar with a pestle in the presence of liquid nitrogen to produce a fine powder. Leaf extracts were prepared in GUS extraction buffer (50 mM sodium phosphate pH7.0, 0.1% Triton-X 100, 0.1% sarkosyl, 10 mM β-mercaptoethanol) as described by Jefferson, R. A. et al. (1986), PNAS USA 83, 8447-8451. The reactions were carried out in the wells of opaque microtiter plates by mixing 10 ul of extract with 65 ul of GUS assay buffer (50 mM sodium phosphate pH 7.0, 10 mM EDTA, 0.1% Triton X-100, 10 mM β-mercaptoethanol) containing 4-methyl umbelliferyl glucuronide […] at a final concentration of 2 mM in a total volume of 75 ul. The plate was incubated at 37° C. for 30 minutes and the reaction was stopped by the addition of 225 ul of 0.2 M sodium carbonate. The concentration of fluorescent indicator released was determined by reading the plate on a Flow Labs Fluoroskan II ELISA plate reader. Duplicate fluorescence values for each sample were averaged, and background fluorescence (reaction without MUG) was subtracted to obtain the concentration of MU for each sample. The amount of protein in each extract was determined using the bicinchoninic acid technique (BCA, Pierce Biochemicals) according to the manufacturer's recommendations except that protein extracts were pretreated with iodoacetamide (Sigma) to eliminate background signal caused by the reductant (β-mercaptoethanol) present in the extraction buffer. The specific activity was determined for each sample and was expressed in pmoles MU/mg protein/minute. For each tissue sample assayed from a particular time point following BTH application, the specific activity of the BTH-induced sample was divided by the specific activity of the pre-BTH treatment control sample, thus yielding the induction of GUS expression. (See Table I)

[5] = tested on: PR-1a/T7 polymerase x plastid T7/GUS plants; assay: GUS protein content of plants after BTH induction (Western blot); assay type: in vivo, Nicotiana tabacum; conditions: plastid transformed plants
Source text: as §1, with “above. […]” for “above.”

CSC(=O)c1cccc2nnsc12 [BTH, benzo(1,2,3)thiadiazole-7-carbothioic acid S-methyl ester]
time of peak cellulase mRNA accumulation ([1]; after induction): 14 days | E5 cellulase mRNA accumulation following induction ([1]; plant material of example C6, none detected prior to induction): significant cellulase mRNA accumulation | % Total RNA (GUS RNA) ([2]; 0.3 days after BTH spray): <0.013% | % Total RNA (GUS RNA) ([2]; 1.0 days after BTH spray): 0.108% | % Total RNA (GUS RNA) ([2]; 2.0 days after BTH spray): 0.873% | % Total RNA (GUS RNA) ([2]; 3.0 days after BTH spray): 2.663% | % Total RNA (GUS RNA) ([2]; 7.0 days after BTH spray): 7.745% | % Total RNA (GUS RNA) ([2]; 28.0 days after BTH spray): 24.596% | peak level of chemically inducible GUS RNA in the plastid, of total ethidium-stainable RNA ([2]; between 7 and 28 days after induction with BTH): 14% | peak GUS RNA relative to peak chemically inducible GUS mRNA accumulation for nuclear PR-1a/GUS transformants ([2]; plastid vs nuclear PR-1a/GUS transformants): over 1000 fold | GUS protein accumulation by 28 days ([3]; 28 days): declines to the limits of detection | time of peak GUS protein accumulation ([3]; from induction): about 3 days | GUS activity (pmol MU/mg/min) ([4]; 0.3 days after BTH spray): 434 pmol MU/mg/min | GUS activity (pmol MU/mg/min) ([4]; 1.0 days after BTH spray): 14,516 pmol MU/mg/min | GUS activity (pmol MU/mg/min) ([4]; 2.0 days after BTH spray): 230,031 pmol MU/mg/min | GUS activity (pmol MU/mg/min) ([4]; 3.0 days after BTH spray): 456,486 pmol MU/mg/min | GUS activity (pmol MU/mg/min) ([4]; 7.0 days after BTH spray): 2,424,725 pmol MU/mg/min | GUS activity (pmol MU/mg/min) ([4]; 28.0 days after BTH spray): 1,922,466 pmol MU/mg/min | GUS protein accumulation, of total protein ([5]; by 28 days): exceeding 20% | time of peak/sustained GUS protein accumulation ([5]; from induction): 7 to 28 days

From patent US7838732B2, “Transgenic plants expressing a cellulase” (Syngenta Participations AG, priority 1996, dated 2010)
